Laboratory results from US20250195596A1, “COMPOSITION FOR PREVENTING OR TREATING RETINAL DISEASE, CONTAINING CENTELLA ASIATICA EXTRACT” (GENENCELL INC., priority 2018, published 2025).

Tested on: ARPE-19 cells
Assay: Cell protection from oxidative stress caused by A2E (MTT)
Type: cell-based
Details: ARPE-19, A2E accumulated 3 days, 30 μM, 48 hours, UV 5 minutes; in % (unit assumed)
Procedure: To determine the effect of inhibiting macular degeneration, the cell death inhibitory effect of A2E was measured. As test cells, ARPE-19 cells, which are retinal pigment epithelial cells, were used, and the medium, medium composition, and experimental conditions were the same as in Experimental Example 1. ARPE-19 cells were dispensed into a 24-well plate at a concentration of 3×10^4 cells/well and cultured for 24 hours, and then A2E was accumulated at a concentration of 3 µM for 3 days. In order to measure the effect of protecting cells from oxidative stress caused by A2E, the cells were treated with 25 μg/mL, 50 μg/mL, and 100 μg/mL of the 50% alcohol extract of Centella asiatica, and as a positive control, the cells were treated with 30 μM of lutein, which is known to have an inhibitory effect on macular degeneration, and cultured for 48 hours, and after 48 hours, the cells were irradiated with ultraviolet rays using a UV lamp for 5 minutes. The cell growth rate was measured at an absorbance of 570 nm using an MTT reagent, and the absorbance of each test solution was measured and compared with a control not treated with A2E.

With `CC1=C[C@H](O)CC(C)(C)[C@H]1/C=C/C(C)=C/C=C/C(C)=C/C=C/C=C(C)/C=C/C=C(C)/C=C/C1=C(C)C[C@@H](O)CC1(C)C` [Lutein, lutein] the “cell growth rate compared with a control not treated with A2E” value was 71.5 ± 8.22.
